Assay results: US10500178B2, “LTB4 inhibition to prevent and treat human lymphedema” (The Board of Trustees of the Leland Stanford Junior …, priority 2015, dated 2019)

What was measured:
VEGFR3, Vegfc, Vegfd = assay: lymphangiogenic factor levels in HLECs (qRT-PCR, Western blot); format: cell-based, human; details: 400 nM LTB4, 100 ng/ml S1P, 25 μM DAPT
Procedure: (§1) Western Blot HLECs were lysed with RIPA buffer containing protease and phosphatase inhibitors. Lysates were sonicated briefly and centrifuged. The supernatant was collected and protein concentration was determined by BCA assay. 60 µg of protein were resolved on a 10% SDS-PAGE gel, transferred to a nitrocellulose membrane, blocked with 5% milk and probed with one of the following antibodies: anti-Sphk1 (3297,Cell Signaling); antip-Sphk1(SP1641, ECM Biosciences); anti-NICD (ab8925,Abcam), anti-VEGFR3 (AF743,R&D); anti-DLL4 (ab7280, Abcam). Actin was used to normalize the total protein. Immunofluorescence Immunofluorescence staining was performed using the following primary antibodies: anti-5-LO (3289, Cell Signaling); anti-MPO (ab45977, Abcam); Anti-CD68 (ab22506, Abcam); anti-Prox1(ab101851, Abcam); anti-NICD (ab8925, Abcam), anti-EphrinB2 (AF496,R&D); anti-VEGFR3 (AF743,R&D); anti-Hey1(ab22614, Abcam); Alexa-Fluor-555 Phalloidin (8953,Cell Signaling); anti-DIG(11093274910, Sigma-Aldrich). Negative controls with isotype IgG were run in parallel. Images were acquired by Zeiss 710 confocal microscopy and analyzed using ImageJ software.
Quantitative RT-PCR. Quantitative PCR (qRT-PCR) was performed using FastStart SYBR Green (Roche) on a Lightcycler 480. mRNA expression relative to GAPDH mRNA levels were calculated using the delta-delta threshold cycle (ΔΔCT) method. PCR microarrays were purchased from Qiagen: RT2 Profiler PCR Array 384-Well Format, Mouse Angiogenesis PAMM-024ZA) and VEGF Signaling (330231 PAMM-091ZA). […]

Notch (NICD, DLL4) = assay: Western blot of NICD and DLL4 in HLECs; format: cell-based, human
Procedure: as §1

[1] = test system: Notch transcriptional activity; assay: CSL luciferase reporter assay in HLECs; format: cell-based, human; details: S1P
Procedure: pG13-6-CSL luciferase assay. CSL reporter activity was determined as described previously. HLECs (5.0×105) were […] and transfected with both 1 μg CSL luciferase reporter ([…]) and 10 ng Renilla luciferase pRL-SV40 (Promega) using Nucleofactor (Lonza). Luciferase and Renilla activity were then determined with Dual-Luciferase® Reporter Assay System (Promega) and Berthold dual-injection illuminometer.

HLECs [2] = assay: NICD and filopodia histology of HLECs; format: cell-based, human
Procedure: as §1

HLECs [3] = assay: HLEC lymphangiogenesis (tube formation, migration, wound healing, sprouting); format: cell-based, human; details: LTB4-impaired or S1P-treated HLEC cultures
Procedure: Tube formation assay. Matrigel (BD Matrigel Basement Membrane Matrix Growth Factor Reduced, Phenol Red Free) was thawed on ice overnight, dispersed into 48-well plates (100 μl per well) and allowed to polymerize for 30 minutes at 37° C. Serum starved HLECs were seeded on the Matrigel at a density of 1×10^4 cells per well. Images of four representative fields were taken 10 hrs later. ImageJ software was used to determine total cellular cord length. Migration assay. Cellular migration was evaluated using a modified Boyden chamber assay. Briefly, 2×10^4 serum-starved HLECs in 250 μl serum free medium were seeded in the upper chamber of the trans-well. 750 μl of serum free ECM containing various drugs was placed in the lower chamber. Ten hours later, migrated cells were stained with a modified Giemsa solution (Sigma-Aldrich) for quantification. Wound healing assay. 6×10^5 HLECs were seeded on an Easy Slide (Millipore) the day before the experiment and allowed to form a fully confluent monolayer, and then cells were serum starved for 12 hrs. A 200 μl pipet tip was used to scratch a straight line across the middle of the cell monolayer. Cell debris was removed through PBS washing. Images were taken immediately after the scratch and the same windows were imaged again 12 hrs later. The rate of cell migration was calculated as the average percent wound closure from at least 5 independent experiments using ImageJ software. Fibrin gel sprouting assay. HLECs were first coated overnight onto the Cytodex-3 beads with an approximate concentration of 400 cells per bead. On the following day, the microbeads were transferred to 2.0 mg/ml fibrinogen solution containing 0.15 units/ml of aprotinin. Later, 0.625 units/ml thrombin was added to the mixture to gelatinize the fibrin gel. Endothelial sprouts (vessel outgrowth) were observed within 3 days of culture using phase micrographic images and quantified as number of vessels per bead.

[4] = test system: acquired lymphedema surgically induced in the tails of female C57BL/6J mice; assay: mouse-tail model of acquired lymphedema (tail volume, histology); format: in vivo; details: for amelioration of lymphedema (serial tail-volume measurements over 24d): therapies started on post-surgery d3 (late LTB4 antagonism)
Procedure: Surgical induction of experimental lymphatic vascular insufficiency. […] Briefly, a full-thickness circumferential incision of the skin was made 16 mm distal to the base of the mouse tail under anesthesia. Lymphatic trunks were ablated through controlled, limited cautery application under the surgical microscope. For surgical controls (sham animals), the skin incision alone was performed without lymphatic cautery.
(§2) All small molecule drugs were administered through daily intraperitoneal injection.
Tail volume quantitation. Tail-volume measurements at each designated time were quantified by observers blinded to the treatment status of the subjects. Tail volumes were calculated through a digital photographic technique pre-operatively, and post-operatively (d3, d9, d14, d20, and d24), using an Olympus D520 Zoom digital camera at SHQ resolution at a fixed distance from the subject (37 cm), as previously described. Tail volumes were derived from the measurement of the tail diameter using the truncated cone approximation. Microlymphangiography was performed by injecting FITC-dextran (size: 2000 kDa) subcutaneously into mouse tails on post-surgery d24. Images were taken 20 minutes after injection.
Viral particles were mixed with Lipofectamine 2,000 (5% final vol/vol, Invitrogen) before injection, to increase transduction efficiency. qRT-PCR, immunofluorescence and fluorescence in situ hybridization were used to evaluate the silencing efficiency in the mouse tail skin 24d after surgery.

LTB4 = assay: serum LTB4 levels in lymphedema mice; format: in vivo, mouse; details: therapies initiated on d3, assessed on d24
Procedure: as §2
Quantification of LTB4, PGE2 and S1P with LC-MS/MS. Briefly, LTB4, PGE2 and S1P were separated from serum with an ACE reverse phase C18 HPLC column. Formic acid 0.5% in 5 mM NH4Ac (A) and formic acid 0.5% in acetonitrile/water (9/1) (B) were used as the mobile phase. […] The internal standard of this method was Carbutamide. The quantification limit was 1 ng/ml. The calibration range was 1-2000 ng/ml.

HLECs [5] = assay: tube formation assay on Matrigel; format: cell-based, human; details: 400 nM LTB4; 10 μM U75302+LTB4
Procedure: Tube formation assay. Matrigel (BD Matrigel Basement Membrane Matrix Growth Factor Reduced, Phenol Red Free) was thawed on ice overnight, dispersed into 48-well plates (100 μl per well) and allowed to polymerize for 30 minutes at 37° C. Serum starved HLECs were seeded on the Matrigel at a density of 1×10^4 cells per well. Images of four representative fields were taken 10 hrs later. […]

CCCCCCCCCCCCC/C=C/[C@@H](O)[C@@H](N)COP(=O)(O)O [S1P, sphingosine-1-phosphate]
VEGFR3 expression and Vegfc, Vegfd transcription (VEGFR3, Vegfc, Vegfd): increased the expression of these factors | cleaved Notch (NICD) and DLL4 levels (Notch (NICD, DLL4)): increased levels | increase of reporter activity from base line [1]: 3 fold | filopodia, nuclear-localized NICD and EphrinB2, cell shape (HLECs [2]): unified stalk-cell shape and enhanced nuclear localization | HLEC lymphangiogenesis in the presence of S1P, shS1pr1, shDll4 or DAPT (HLECs [3]): restored the abnormal HLEC migration, differentiation, sprouting, and vessel formation caused by LTB4

C[C@H](NC(=O)Cc1cc(F)cc(F)c1)C(=O)N[C@H](C(=O)OC(C)(C)C)c1ccccc1 [DAPT]
effect of adding DAPT to bestatin-therapy in lymphedema ([4]; DAPT 30 mg/kg added to bestatin 4 mg/kg): abrogated the therapeutic benefit of bestatin | VEGFR3 expression and Vegfc, Vegfd transcription (VEGFR3, Vegfc, Vegfd): inhibited | HLEC lymphangiogenesis in the presence of S1P, shS1pr1, shDll4 or DAPT (HLECs [3]): did not abrogate lymphangiogenesis entirely

CC(c1cc2ccccc2s1)N(O)C(N)=O (stereo not shown) [zileuton, 1-[1-(1-benzothiophen-2-yl)ethyl]-1-hydroxyurea]
amelioration of lymphedema (serial tail-volume measurements over 24d) [4]: demonstrated therapeutic amelioration of lymphedema | serum LTB4 levels (LTB4): effectively reduced

CCCCC/C=C\C[C@@H](O)/C=C/c1cccc(C[C@@H](O)CCCCO)n1 [U75302]
tube formation (tube area) (HLECs [5]): normalized tube formation

CCCc1c(OCCCOc2cc(O)c(-c3ccc(F)cc3)cc2CC)cccc1Oc1ccccc1C(=O)O [Ly293111, 2-[2-propyl-3-[3-[2-ethyl-4-(4-fluorophenyl)-5-hydroxyphenoxy]-propoxy]phenoxy]benzoic acid]
benefit of LTB4 antagonism administered prior to surgery ([4]; therapies administered prior to sham and lymphedema surgery (bestatin, Ly293111 from d0, shLtb4r1 on d(−7))): not beneficial | amelioration of lymphedema (serial tail-volume measurements over 24d) [4]: demonstrated therapeutic amelioration of lymphedema

CC(C(=O)O)c1cccc(C(=O)c2ccccc2)c1 (stereo not shown) [ketoprofen]
serum LTB4 levels (LTB4): effectively reduced

CC(C)Cc1ccc(C(C)C(=O)O)cc1 (stereo not shown) [ibuprofen]
tail swelling ([4]; therapies initiated on d3): not | tail histology (edema, epidermal/dermal junction) ([4]; treatment from d3): unresolved edema, irregular epidermal/dermal junction
